# What was measured:
# IFNγ = assay: Cell-based cytokine inhibition assay (PBMCs, anti-CD3/anti-CD28 stimulated, MSD kit): IFNγ; conditions: PBMC, anti-CD3/anti-CD28 stimulation, 23 h with compound, relative to DMSO control
# Experimental: (§1) Frozen primary blood mononuclear cells (PBMCs) were thawed and washed once with RPMI 1640 media supplemented with 10% fetal bovine serum, 1% penicillin, and 1% streptomycin. An anti-CD28 antibody at […] was added to the media as a co-stimulant. PBMCs were plated at 1×10^6 cells per well in a 96-well U bottom plate, which was pre-coated overnight with an anti-CD3 antibody at 1 μg/mL in PBS (100 μL/well). After the place was incubated for 1 h at 37° C. in a CO2 incubator, DMSO (control) or a compound was added. After the place was incubated for 23 h at 37° C. in a CO2 incubator, the cells were spun down at 1,500 rpm for 5 min. Supernatant media was collected for cytokine analysis using an MSD kit. Inhibitory activities of the compound were determined as a percentage of the DMSO control.
# IL-2 = assay: Cell-based cytokine inhibition assay (PBMCs, anti-CD3/anti-CD28 stimulated, MSD kit): IL-2; conditions: PBMC, anti-CD3/anti-CD28 stimulation, 23 h with compound, relative to DMSO control
# Experimental: as §1
# IL-10 = assay: Cell-based cytokine inhibition assay (PBMCs, anti-CD3/anti-CD28 stimulated, MSD kit): IL-10; conditions: PBMC, anti-CD3/anti-CD28 stimulation, 23 h with compound, relative to DMSO control
# Experimental: as §1
# TNFα = assay: Cell-based cytokine inhibition assay (PBMCs, anti-CD3/anti-CD28 stimulated, MSD kit): TNFα; conditions: PBMC, anti-CD3/anti-CD28 stimulation, 23 h with compound, relative to DMSO control
# Experimental: as §1
# [1] = tested on: PDE4D, in particular, PDE4D short isoform; assay: Protein degradation assay in A549 cells (western blot): PDE4D; format: cell-based; conditions: 24 h, same conditions
# Experimental: A549 cells were grown in RPMI 1640 media supplemented with 10% fetal bovine serum, streptomycin, and penicillin. The cells were plated in 6-well plates at 300,000 cells/well in the growth media. After overnight incubation, the cells were treated with DMSO (control) or a compound at predetermined concentrations (e.g., 10 nM, 100 nM, 1 μM, 3 μM, or 10 μM) for 24 h at 37° C. under 5% CO2. Whole cell extracts were prepared using an immunoprecipitation (IP) lysis buffer. The cells were washed once in PBS, and the cell pellets were resuspended in the IP lysis buffer and incubated for 15 min on ice. Cells debris was removed by centrifugation and the cleared whole cell lysates were transferred to new tubes for further analysis.
# For a western blot analysis, the whole cell protein extracts were separated on 4-12% SDS-polyacrylamide gels, transferred to nitrocellulose, and probed with primary antibodies. Membranes were subsequently washed and probed with IRDYE® secondary antibodies. The signals were detected using an ODYSSEY® Imaging System. The antibodies used in the assay included anti-PDE4B antibody; anti-PDE4D antibodies (top, bottom, and short isoform); β-actin mouse monoclonal antibody; IRDYE® 680RD goat anti-rabbit antibody; and IRDYE® 800CW goat anti-mouse antibody.
SMILES,IC50 (IFNγ) [nM],IC50 (IL-2) [nM],IC50 (IL-10) [nM],IC50 (TNFα) [nM],degradation of PDE4D (result in words) [1]
"CCOc1cc([C@@H](CS(C)(=O)=O)N2C(=O)c3ccc(N4CCN(CC5CCN(Cc6ccc(Oc7ccc8c(C9CCC(=O)NC9=O)nn(C)c8c7)cc6)CC5)CC4)cc3C2=O)ccc1OC (stereo partly drawn) [Compound B002, 5-(4-((1-(4-((3-(2,6-dioxopiperidin-3-yl)-1-methyl-1H-indazol-6-yl)oxy)benzyl)-piperidin-4-yl)methyl)piperazin-1-yl)-2-((S)-1-(3-ethoxy-4-methoxyphenyl)-2-(methylsulfonyl)-ethyl)isoindoline-1,3-dione]",0.3,0.09,0.2,0.09,–
CCOc1cc([C@@H](CS(C)(=O)=O)N2C(=O)c3cccc(NC(C)=O)c3C2=O)ccc1OC [apremilast],–,–,–,–,did not degrade
"CCOc1cc([C@@H](CS(C)(=O)=O)N2C(=O)c3ccc(N4CCC(C5CCN(Cc6ccc(Oc7ccc8c(C9CCC(=O)NC9=O)nn(C)c8c7)cc6)CC5)CC4)cc3C2=O)ccc1OC (stereo partly drawn) [Compound B001, 5-(1′-(4-((3-(2,6-dioxopiperidin-3-yl)-1-methyl-1H-indazol-6-yl)oxy)benzyl)-[4,4′-bipiperidin]-1-yl)-2-((S)-1-(3-ethoxy-4-methoxyphenyl)-2-(methylsulfonyl)ethyl)-isoindoline-1,3-dione]",0.9,0.2,0.3,0.3,–

# From patent US20260224550A1, “PDE4 DEGRADERS, PHARMACEUTICAL COMPOSITIONS, AND THERAPEUTIC APPLICATIONS” (BioTheryX, Inc., priority 2023, published 2026)
